Where a name gives a salt, the structure may show the parent alone. Read-outs that look alike come from different tables or passages of the source.
How the values were obtained:
[1] = target: KRAS protein containing G12D mutation (Homo sapiens (Human), UniProt P01116, G12D); assay: SOS-catalyzed nucleotide exchange assay (GNE), TR-FRET; type: biochemical; settings: biotinylated KRAS G12D, SOS and GTP, 60-minute incubation
Protocol: Compounds are added to this complex and then after a 60-minute incubation time the mixture is treated with SOS and unlabeled GTP. Small molecule inhibitors stabilize the Bodipy-GDP complex whereas the untreated protein rapidly exchanges Bodipy-GDP for unlabeled GTP resulting in reduced TR-FRET signal.
This solution is referred to as biotinylated KRAS G12D stock solution.

[2] = tested on: AsPC-1 cells containing homozygous KRAS-G12D activating mutation; assay: Cellular phospho-ERK assay with 10% FBS (Examples 107a-256); type: cell-based
Protocol: 5% CO2 for 2 hours. […] Assay plates were read on a EnVision Multimode Plate Reader (PerkinElmer) and the ratio of p-Erk vs total Erk in each well was used as the final readout.

[3] = read-out: IC50 (nM) pERK (cell with FBS 10%), AsPC-1 cells, 10% fetal bovine serum, 2 hours, ratio of p-Erk vs total Erk
[4] = Homo sapiens, ASPC1, 2 h, read-out: IC50 (nM) pERK (cell with FBS 10%), AsPC-1 cells, 10% fetal bovine serum, 2 hours, ratio of p-Erk vs total Erk

Row | Compound | IC50 [1] | IC50 [2, 3] | IC50 [2, 4]
1 | 2,2,2-trifluoroacetaldehyde-6-(6-chloro-8-fluoro-2-(((2R,7aS)-2-fluorotetrahydro-1H-pyrrolizin-7a(5H)-yl)methoxy)-4-((1S,5R)-1-methyl-3,8-diazabicyclo[3.2.1]octan-3-yl)quinazolin-7-yl)-4-methyl-5-(trifluoromethyl)pyridin-2-amine (1/1) [Ex. 238b] | 2710 nM | 21100 nM | –
2 | CC(Oc1nc(N2C[C@H]3CC[C@@](C)(C2)N3)c2cc(F)c(-c3cc(O)cc4cccc(Cl)c34)c(F)c2n1)[C@]1(C)CCCN1 (mixture of isomers) [Ex. 164, 5-chloro-4-(6,8-difluoro-4-((1S,5R)-1-methyl-3,8-diaza-bicyclo-[3.2.1]octan-3-yl)-2-(1-((S)-2-methyl-pyrrolidin-2-yl)ethoxy)-quinazolin-7-yl)naph-thalen-2-ol, TFA] | 562 nM | – | 29300 nM
3 | C[C@]12CC[C@H](CN(c3nc(OCC45CNCC4C5)nc4c(F)c(-c5cc(O)cc6cccc(Cl)c56)c(F)cc34)C1)N2 (mixture of isomers) [Ex. 165, 4-(2-((3-azabicyclo-[3.1.0]hexan-1-yl)-methoxy)-6,8-difluoro-4-((1S,5R)-1-methyl-3,8-diazabicyclo[3.2.1]-octan-3-yl)quinazolin-7-yl)-5-chloronaph-thalen-2-ol, TFA] | 149 nM | – | 15400 nM
4 | Cc1cc(N)nc(-c2c(F)cc3c(N4CC5CCC(C4)N5)nc(OC[C@@]45CCCN4C[C@H](F)C5)nc3c2F)c1C(F)(F)F (mixture of isomers) [Ex. 193, 6-(4-((1R,5S)-3,8-diazabicyclo[3.2.1]-octan-3-yl)-6,8-difluoro-2-(((2R,7aS)-2-fluorotetrahydro-1H-pyrrolizin-7a(5H)-yl)methoxy)quinazo-lin-7-yl)-4-methyl-5-(trifluoromethyl)pyr-idin-2-amine] | 10.3 nM | – | 187 nM
5 | C[C@]12CCC(CN(c3nc(OC[C@@]45CCCN4C[C@H](F)C5)nc4c(F)c(-c5cccc6cccc(Cl)c56)c(F)cc34)C1)N2 (mixture of isomers) [Ex. 212, 7-(8-chloronaphthalen-1-yl)-6,8-difluoro-2-(((2R, 7aS)-2-fluorotetrahydro-1H-pyrrolizin-7a(5H)-yl)-methoxy)-4-((1S,5R)-1-methyl-3,8-diazabicyclo-[3.2.1]octan-3-yl)quinazoline, 2TFA] | 180 nM | – | 9060 nM
6 | C[C@]12CCC(CN(c3nc(OC[C@]4(CN5CCC(CO)C5)CC4(F)F)nc4c(F)c(-c5cc(O)cc6cccc(Cl)c56)c(F)cc34)C1)N2 (mixture of isomers) [Ex. 218, 5-chloro-4-(2-(((1R)-2,2-difluoro-1-((3-(hydroxymethyl)pyrrolidin-1-)-methyl)cyclopropyl)methoxy)-6,8-difluoro-4-((1S,5R)-1-methyl-3,8-diazabicyclo[3.2.1]octan-3-yl)quinazolin-7-yl)naphthalen-2-ol] | 6.54 nM | – | 1550 nM
7 | C[C@]12CCC(CN(c3nc(OC[C@@]45CCCN4C[C@H](F)C5)nc4c(F)c(-c5cc(O)cc6cccc(C(F)F)c56)c(F)cc34)C1)N2 (racemic) [Ex. 181a, rac-4-(6,8-difluoro-2-(((2R,7aS)-2-fluoro-tetrahydro-1H-pyrrol-izin-7a(5H)-yl)meth-oxy)-4-((18,5R)-1-methyl-3,8-diaza-bicyclo[3.2.1]octan-3-yl)quinazolin-7-yl)-5-(difluoromethyl)naph-thalen-2-ol] | – | 122 nM | –
8 | C[C@]12CCC(CN(c3nc(OC[C@@]45CCCN4C[C@H](F)C5)nc4c(F)c(-c5cc(O)cc6cccc(C(F)F)c56)c(F)cc34)C1)N2 (racemic) [Ex. 181b, rac-4-(6,8-difluoro-2-(((2R,7aS)-2-fluoro-tetrahydro-1H-pyrrol-izin-7a(5H)-yl)meth-oxy)-4-((1S,5R)-1-methyl-3,8-diaza-bicyclo[3.2.1]octan-3-yl)quinazolin-7-yl)-5-(difluoromethyl)naph-thalen-2-ol] | – | 2660 nM | –
9 | C[C@]12CC[C@H](CN(c3nc(OCC4(CN5CCCC(O)(C(F)(F)F)C5)CC4)nc4c(F)c(-c5cc(O)cc6cccc(Cl)c56)c(F)cc34)C1)N2 (mixture of isomers) [Ex. 206, rac-1-((1-(((7-(8-chloro-3-hydroxynaphthalen-1-yl)-6,8-difluoro-4-((1S,5R)-1-methyl-3,8-diazabicyclo-[3.2.1]octan-3-yl)quinazolin-2-yl)oxy)methyl)cyclo-propyl)methyl)-3-(trifluoromethyl)piperidin-3-ol] | 1340 nM | – | 30000 nM
10 | C[C@]12CC[C@H](CN(c3nc(OCC4(CN5CCCC(O)(C(F)(F)F)C5)CC4)nc4c(F)c(-c5cc(O)cc6cccc(Cl)c56)c(F)cc34)C1)N2 (mixture of isomers) [Ex. 207, rac-1-((1-(((7-(8-chloro-3-hydroxynaphthalen-1-yl)-6,8-difluoro-4-((1S,5R)-1-methyl-3,8-diazabicyclo-[3.2.1]octan-3-yl)quinazolin-2-yl)oxy)methyl)cyclo-propyl)methyl)-3-trifluoromethyl)piperidin-3-ol] | 767 nM | 30000 nM | –
11 | Cc1cc2[nH]nc(C#N)c2c(-c2c(F)cc3c(N4C[C@H]5CC[C@@H](C4)N5)nc(OC[C@@]45CCCN4C[C@H](F)C5)nc3c2F)c1C(F)(F)F (single isomer, unassigned) [227b] | 1.02 nM | 32.6 nM | –
12 | C#Cc1c(F)ccc2cccc(-c3c(F)cc4c(N5CC6CC[C@@](C)(C5)N6)nc(OCC56CCCN5C(COC(=O)N(C)C)CC6)nc4c3F)c12 (single isomer, unassigned) [242a] | 1.15 nM | 135 nM | –
13 | C#Cc1c(F)ccc2cccc(-c3c(F)cc4c(N5CC6CC[C@@](C)(C5)N6)nc(OCC56CCCN5C(COC(=O)N(C)C)CC6)nc4c3F)c12 (single isomer, unassigned) [242b] | 93.5 nM | 1080 nM | –
14 | Cc1cc(N)nc(-c2c(Cl)cc3c(N4CC5CC(O)C(C4)N5)nc(OC[C@@]45CCCN4C[C@H](F)C5)nc3c2F)c1C(F)(F)F (single isomer, unassigned) [249b] | 1.52 nM | – | 360 nM
15 | Cc1nc2[nH]nc(C)c2c(-c2c(F)cc3c(N4C[C@H]5CC[C@@H](C4)N5)nc(OC[C@@]45CCCN4C[C@H](F)C5)nc3c2F)c1C(F)(F)F (single isomer, unassigned) [250b] | 1.54 nM | 63.1 nM | –
16 | C#Cc1c(F)ccc2cc(N)nc(-c3c(F)cc4c(N5C[C@H]6CC[C@@H](C5)N6)nc(OC[C@@]56CCCN5C[C@H](F)C6)nc4c3F)c12 (single isomer, unassigned) [252a] | 0.85 nM | – | 64.3 nM
17 | CN(C)CC1(COc2nc(N3C[C@H]4CC[C@@](C)(C3)N4)c3cc(F)c(-c4cc(O)cc5ccccc45)c(F)c3n2)CC1C(=O)O (single isomer, unassigned) [Ex. 107a] | 648 nM | 30000 nM | –
18 | Cc1cc2[nH]ncc2c(-c2c(F)cc3c(N4C[C@H]5CC[C@@](C)(C4)N5)nc(OC[C@@]45CCCN4C[C@H](F)C5)nc3c2F)c1OC(F)(F)F (single isomer, unassigned) [Ex. 126a] | 8.59 nM | 1240 nM | –
19 | Cc1cc2[nH]ncc2c(-c2c(F)cc3c(N4C[C@H]5CC[C@@](C)(C4)N5)nc(OC[C@@]45CCCN4C[C@H](F)C5)nc3c2F)c1OC(F)(F)F (single isomer, unassigned) [Ex. 126b] | 67.9 nM | 3460 nM | –

Reference: patent publication US20240239788A1, “SMALL MOLECULE INHIBITORS OF KRAS G12D MUTANT” (Merck Sharp & Dohme LLC, priority 2021, published 2024)
